Data on two molecules can be found in US20230210838A1, “METHODS FOR TREATING CANCER OR VON-HIPPEL LINDAU DISEASE USING A COMBINATION OF A HIF-2 ALPHA INHIBITOR AND LENVATINIB” (Merck Sharp & Dohme LLC, priority 2020, published 2023).

Data set [1] in a line: Phase 1 cross-over study of the effect of food on the PK of MK-6482 in healthy volunteers. Particulars: single dose 120 mg, healthy female adult volunteers. The data set is classed as in vivo, human.
The nature of data set [2]: FIH Phase 1 study of tolerability, safety, PK of MK-6482 in participants with advanced solid tumors. The data set is classed as in vivo, human. As for the experimental part:
As of 6 Sep. […] 52 additional participants with advanced RCC were treated in an expansion cohort (Part 1B) at the clinical dose of 120 mg QD.

A further data set deals with advanced RCC. Nature of the data set: FIH Phase 1 study, best response by RECIST v1.1 in previously treated advanced RCC. The data set is classed as in vivo, human. The following applies: 120 mg QD, 55 participants with previously treated advanced RCC. As for the experimental part: A FIH Phase 1 study designed to assess the tolerability, safety, PK, and PD properties of MK-6482 in participants with various advanced solid tumors is ongoing. As of 6 Sep. 2019 a total of 104 participants had been enrolled, including 43 participants with various advanced solid tumors in the dose-escalation portion (Part 1A) ranging from 20 to 240 mg QD and 120 mg BID. The MTD was not reached and 2 treatment-related DLTs were observed: 1 Grade 4 event of thrombocytopenia in the 240 mg QD cohort, and 1 Grade 3 event of hypoxia in the 120 mg BID cohort. The 120 mg QD dose was selected for further clinical development based on favorable PK, pharmacodynamic, and safety findings. 52 additional participants with advanced RCC were treated in an expansion cohort (Part 1B) at the clinical dose of 120 mg QD. […] In total, 55 participants with previously treated advanced RCC have been treated in this study with MK-6482 at 120 mg QD (3 patients in the dose-escalation portion of the study and 52 participants in the dose expansion portion of the study). Best response among these 55 participants included 11 participants (20%) with PR and 32 participants (58%) with SD as assessed by RECIST v1.1.

Data set [3] is described as follows: Phase 2 open-label efficacy and safety study in VHL disease associated RCC. In kind it is in vivo, human. The following applies: 120 mg QD, 61 participants with VHL disease associated RCC. The source says: A Phase 2, open-label efficacy and safety study in participants with VHL disease associated RCC is ongoing. As of 6 Sep.
Data set [4] deals with UMRC2 human VHL-deficient renal cell carcinoma xenograft. Nature of the data set: VHL-deficient renal cell carcinoma xenograft tumor model. In kind it is in vivo. The following applies: for anti-tumor activity compared to the vehicle control group: Day 34, one-way ANOVA with Tukey's multiple comparisons; for Final CRs: complete tumor regressions at end of study; for Final CRs / Final PRs: 10 mice per group; for Final PRs: partial tumor regressions at end of study; for TGI: respective to Vehicle-treated animals at Day 34, MK-6482 3 mg/kg BID oral, Lenvatinib 10 mg/kg QD oral. The procedure: Prior to treatment initiation, female SCID Beige mice aged 7 weeks weighing between 18 to 21 grams were anesthetized and inoculated subcutaneously on the rear flank with single cell suspension of approximately 95% viable log-phase sub-confluent UMRC2 (5.0×10^6) cells in 0.1 mL of serum-free Dulbecco's Modified Eagle Medium (DMEM) to initiate tumor development. Treatment was initiated when the mean tumor volume of inoculated animals reached approximately 205 mm^3. Mice were pair-matched into 4 treatment groups consisting of 10 mice per group. Treatment groups consisted of: 1) 0.5% methylcellulose+0.5% Tween 80 (Vehicle); 2) MK-6482; 3) Lenvatinib; 4) MK-6482+Lenvatinib. Vehicle and MK-6482 were orally gavage-dosed twice daily (BID) at 3 mg/kg body weight. Lenvatinib was orally dosed once daily (QD) at 10 mg/kg body weight. Treatment began on Day 0 and completed on Day 34. —Caliper measurements of tumors and body weights were captured twice weekly. Statistical analysis was performed by one-way ANOVA with Tukey's multiple comparisons tests at the end of the study, Day 34.
CRs were defined as no observable tumor whereas PRs were tumors whose volume was lower than the original tumor size when treatment began.

[5] abbreviates: combined dose escalation and expansion cohorts.

Where “and” joins values, the source holds several entries; their conditions need not be identical. Identical values can stand only once. Some results are limits rather than exact numbers.

The Cmax is the maximum level reached in the sampled fluid or tissue. Usually TGI stands for how far tumour growth fell short of that in controls. For `CS(=O)(=O)c1ccc(Oc2cc(F)cc(C#N)c2)c2c1[C@H](O)[C@H](F)[C@@H]2F` [MK-6482, 3-[(1S,2S,3R)-2,3-difluoro-1-hydroxy-7-methylsulfonyl-indan-4-yl]oxy-5-fluoro-benzonitrile], in data set [1], the “delay of time to peak MK-6482 exposure, median difference (Fed—Fasted)” value was determined as 2 h and the “most common adverse event (headache), incidence” value was determined as 12.5%. In addition, in data set [1] (fed vs fasted), the “effect of high fat, high calorie meal on extent of MK-6482 exposure” value is reported as “did not affect” and the “lowering of maximum plasma MK-6482 concentration by high fat, high calorie meal” value is “approximately 35%”. Besides, the “accumulation from Day 1 to Day 15” value in data set [2] (120 mg QD expansion cohort (Part 1B)) is 1.5 fold. In data set [2] (1 Grade 4 thrombocytopenia in 240 mg QD cohort, 1 Grade 3 hypoxia in 120 mg BID cohort), the “treatment-related DLTs observed (number)” value worked out at 2. Besides, in data set [2] (setting [5]), the “most common AEs (anemia, fatigue, dyspnea, nausea, peripheral edema), share of participants” value was at least 20%; the “most common Grade 3 AEs (anemia and hypoxia), share of participants” value is given as at least 5%. Moreover, the MTD entry in data set [2] (dose escalation (Part 1A) 20 to 240 mg QD and 120 mg BID) is reported as “not reached”. Also, the Cmax in data set [2] (human, in vivo, 120 mg QD expansion cohort (Part 1B), Day 15, read-out: mean steady state Cmax) was 1790 ng/mL and 4.67 µM. Also, the half-life in data set [2] (human, in vivo, 120 mg QD expansion cohort (Part 1B), Day 15, read-out: mean steady state t1/2 (converted)) is 15.4 h. Moreover, in the data set on advanced RCC, the “best response PR, number of participants” value was 11 participants; the “best response PR, share of participants” value is recorded as 20%; the “best response SD, number of participants” value came out at 32 participants; the “best response SD, share of participants” value is 58%. The “most common AE of ≥Grade 3 toxicity (fatigue), share of participants” value in data set [3] is listed as at least 5%. Moreover, in data set [4], the “anti-tumor activity compared to the vehicle control group” value was “significant anti-tumor activity”, the “Final CRs” value was 0/10, the “Final PRs” value is listed as 1/10 and the TGI came out at 51%.
With `COc1cc2nccc(Oc3ccc(NC(=O)NC4CC4)c(Cl)c3)c2cc1C(N)=O` [Lenvatinib, 4-[3-chloro-4-(cyclopropylaminocarbonyl)aminophenoxy]-7-methoxy-6-quinolinecarboxamide], in data set [4], the “anti-tumor activity compared to the vehicle control group” value is listed as “significant anti-tumor activity”; the “Final CRs” value is recorded as 0/10 PRs, 0/10 CRs; the “Final PRs” value is 0/10 PRs, 0/10 CRs; the TGI is 83%.
